Measurements published in ChEMBL document CHEMBL3244075, “Synthesis and hypoglycemic activity of some substituted 2-arylthiazolo[3,2-a]pyridinium salts” (J Med Chem, 1978).
Active and inactive are the calls of the source. The rule behind the calls is not given here.

Tests used:
[1] = test system: Rattus norvegicus; experiment: Hypoglycemic activity in 48 hrs-fasted rat assessed as change in blood glucose level at dose equivalent to 102 mg of free base/kg, po measured at 5 hrs relative to control; format: functional
[2] = test system: Rattus norvegicus; experiment: Hypoglycemic activity in 48 hrs-fasted rat assessed as change in blood glucose level at dose equivalent to 102 mg of free base/kg, po measured at 3 hrs relative to control; format: functional
[3] = test system: Rattus norvegicus; experiment: Hypoglycemic activity in 48 hrs-fasted rat assessed as change in blood glucose level at dose equivalent to 102 mg of free base/kg, po measured at 1 hr relative to control; format: functional
[4] = test system: Rattus norvegicus; experiment: Hypoglycemic activity in 48 hrs-fasted rat assessed as change in blood glucose level at dose equivalent to 102 mg of free base/kg, po measured at 2 hrs relative to control; format: functional
[5] = test system: Rattus norvegicus; experiment: Hypoglycemic activity in 48 hrs-fasted rat assessed as change in blood glucose level at dose equivalent to 102 mg of free base/kg, po measured at 4 hrs relative to control; format: functional
[6] = test system: Rattus norvegicus; experiment: Toxicity in 48 hrs-fasted rat assessed as elevation in hepatic triglyceride level at dose equivalent to 102 mg of free base/kg, po relative to control; format: organism-based; conditions: in vivo
[7] = test system: Rattus norvegicus; experiment: Hypoglycemic activity in 48 hrs-fasted rat assessed as change in blood glucose level at dose equivalent to 68 mg of free base/kg, po measured at 4 hrs relative to control; format: functional
[8] = test system: Rattus norvegicus; experiment: Hypoglycemic activity in 48 hrs-fasted rat assessed as change in blood glucose level at dose equivalent to 68 mg of free base/kg, po measured at 5 hrs relative to control; format: functional
[9] = test system: Rattus norvegicus; experiment: Hypoglycemic activity in 48 hrs-fasted rat assessed as change in blood glucose level at dose equivalent to 68 mg of free base/kg, po measured at 1 hr relative to control; format: functional
[10] = test system: Rattus norvegicus; experiment: Toxicity in 48 hrs-fasted rat assessed as elevation in hepatic triglyceride level at dose equivalent to 34 mg of free base/kg, po relative to control; format: organism-based; conditions: in vivo
[11] = test system: Rattus norvegicus; experiment: Toxicity in streptozotocin-induced diabetic rat model assessed as elevation in hepatic triglyceride level up to dose equivalent to 136 mg of free base/kg, po relative to control; format: organism-based; conditions: in vivo
[12] = test system: Rattus norvegicus; experiment: Hypoglycemic activity in 48 hrs-fasted rat assessed as change in blood glucose level at dose equivalent to 68 mg of free base/kg, po measured at 3 hrs relative to control; format: functional
[13] = test system: Rattus norvegicus; experiment: Hypoglycemic activity in 48 hrs-fasted rat assessed as change in blood glucose level at dose equivalent to 68 mg of free base/kg, po measured at 2 hrs relative to control; format: functional
[14] = species: Rattus norvegicus; experiment: Hypoglycemic activity in streptozotocin-induced diabetic rat model; format: functional, organism-based
[15] = species: Rattus norvegicus; experiment: Hypoglycemic activity in normal fed rat; format: functional, organism-based
[16] = test system: Rattus norvegicus; experiment: Hypoglycemic activity in 48 hrs-fasted rat assessed as change in blood glucose level at dose equivalent to 34 mg of free base/kg, po measured at 5 hrs relative to control; format: functional, organism-based
[17] = test system: Kidney; experiment: Inhibition of glucose production from lactate in rat kidney cortex at 10^-4 M; format: functional, tissue-based

Row | SMILES | Activity [1] [%] | Activity [2] [%] | Activity [3] [%] | Activity [4] [%] | Activity [5] [%] | further results
1 | CS(=O)(=O)c1ccc(-c2c[n+]3ccccc3s2)cc1.[O-][Cl+3]([O-])([O-])[O-] | -2 | -6 | 3 | -8 | -6 | 
2 | O.[Cl-].c1ccc(-c2ccc(-c3c[n+]4ccccc4s3)cc2)cc1 | 3 | -12 | -7 | -12 | 13 | 
3 | O=S(=O)([O-])c1ccc(-c2c[n+]3ccccc3s2)s1 | 6 | -5 | -6 | 5 | -6 | 
4 | [O-][Cl+3]([O-])([O-])[O-].c1ccc(-c2c[n+]3ccccc3s2)cc1 |  |  |  |  |  | Activity [6]: 200%; Activity [7]: -33%; Activity [8]: -28%; Activity [9]: -4%; Activity [10]: Toxic; Activity [11]: Non-toxic; Activity [12]: -17%; Activity [13]: -8%
5 | O=C([O-])C(F)(F)F.c1ccc(-c2c[n+]3ccccc3s2)cc1 |  |  | -7 | -9 |  | Activity [7]: -18%; Activity [8]: -24%; Activity [12]: -15%
6 | CSc1ccc(-c2c[n+]3ccccc3s2)cc1.O.[O-][Cl+3]([O-])([O-])[O-] | -2 | -14 | -9 | -11 | -6 | 
7 | CC(=O)Nc1cccc(-c2c[n+]3ccccc3s2)c1.[O-][Cl+3]([O-])([O-])[O-] | 4 | 3 | 12 | 8 | 9 | 
8 | [O-][Cl+3]([O-])([O-])[O-].c1cc[n+]2ccsc2c1 | -12 | -15 | -14 | -20 | -13 | 
9 | Cc1cc[n+]2cc(-c3ccccc3)sc2c1.[O-][Cl+3]([O-])([O-])[O-] | -22 | -28 | 14 | -4 | -29 | 
10 | Brc1ccc(-c2c[n+]3ccccc3s2)cc1.O.O=S(=O)([O-])O | 1 | -1 | 9 | -4 | -5 | 
11 | O=S(=O)([O-])c1ccc(-c2ccc(-c3c[n+]4ccccc4s3)cc2)cc1 | 4 | 13 | 3 | 3 | 2 | 
12 | O.O=S(=O)([O-])O.O=[N+]([O-])c1cccc(-c2c[n+]3ccccc3s2)c1 | 0 | -6 | -10 | -7 | -6 | 
13 | c1ccc(-c2c[n+]3ccccc3s2)cc1 |  |  |  |  |  | Activity [14]: Active; Activity [15]: Active; Activity [16]: Active; Activity [17]: Active
14 | O.[Cl-].c1csc(-c2c[n+]3ccccc3s2)c1 | 0 | -13 | 1 | -2 | -13 | 
15 | O.O=S(=O)([O-])O.c1ccc(-c2c[n+]3ccccc3s2)cc1 |  |  |  |  |  | Activity [7]: -39%; Activity [8]: -30%; Activity [9]: -6%; Activity [12]: -21%; Activity [13]: -16%
16 | O.[Cl-].c1ccc(-c2c[n+]3ccccc3s2)cc1 |  |  |  |  |  | Activity [7]: -39%; Activity [8]: -39%; Activity [9]: -4%; Activity [12]: -31%; Activity [13]: -13%
17 | O.[O-][Cl+3]([O-])([O-])[O-].c1ccc(-c2csc3cccc[n+]23)cc1 | -19 | -28 | -12 | -16 | -12 | 
18 | CN(C)/C=N/c1cccc(-c2c[n+]3ccccc3s2)c1.O.[O-][Cl+3]([O-])([O-])[O-] | 22 | -1 | 1 | 0 | -1 | 
19 | Cc1ccc2sc(-c3ccccc3)c[n+]2c1.[O-][Cl+3]([O-])([O-])[O-] | -16 | -26 | 19 | -30 | -27 | 
20 | CC(C)Oc1cccc(-c2c[n+]3ccccc3s2)c1.[O-][Cl+3]([O-])([O-])[O-] | -10 | -4 | 4 | -1 | 9 | 
21 | Cc1ccc[n+]2cc(-c3ccccc3)sc12.O.[O-][Cl+3]([O-])([O-])[O-] | -50 | -51 | -17 | -42 | -59 | Activity [6]: 200%
22 | Nc1ccc(-c2c[n+]3ccccc3s2)cc1.O.[O-][Cl+3]([O-])([O-])[O-] | -14 | -20 | -8 | 1 | -7 | 
23 | Nc1cccc(-c2c[n+]3ccccc3s2)c1.[O-][Cl+3]([O-])([O-])[O-] | -8 | -8 | -10 | -16 | -7 | 
